Common to all, as to type: functional
For assay [1], the system named is Bacillus subtilis. Description: Growth inhibition of Bacillus subtilis at 5 ug/ml. As to conditions: for inhibition at 5 µg/mL: Bacillus subtilis.
For assay [2], the system named is Bacillus subtilis. Description: Growth inhibition of Bacillus subtilis at 91 ug/ml.
In assay [3] the test system is KB. Description: Plating efficiency of human KB cells at 25 ug/ml.
Assay [4] relates to KB. Description: Growth inhibition of human KB cells at 25 ug/ml. The note with it: read-out: GI.
The subject of assay [5] is KB. Briefly: Growth inhibition of human KB cells at 12.5 ug/ml. The note with it: read-out: GI.
Assay [6] concerns KB. Description: Growth inhibition of human KB cells at 150 ug/ml. As to conditions: read-out: GI.
Assay [7] deals with KB. Briefly: Plating efficiency of human KB cells at 150 ug/ml.
Assay [8] concerns KB. Description: Plating efficiency of human KB cells at 12.5 ug/ml.
In assay [9] the test system is Pseudomonas fluorescens. Briefly: Growth inhibition of Pseudomonas fluorescens at 91 ug/ml.
Assay [10] relates to Bacillus subtilis. Briefly: Growth inhibition of Bacillus subtilis at 45 ug/ml.
In assay [11] the test system is Pseudomonas fluorescens. Description: Growth inhibition of Pseudomonas fluorescens at 45 ug/ml.
For assay [12], the system named is Bacillus subtilis. Description: Growth inhibition of Bacillus subtilis at 50 ug/ml.
The test system of assay [13] is Pseudomonas fluorescens. Description: Growth inhibition of Pseudomonas fluorescens at 50 ug/ml.
Assay [14] relates to KB. Briefly: Plating efficiency of human KB cells at 50 ug/ml.
In assay [15] the test system is KB. Description: Growth inhibition of human KB cells at 50 ug/ml. The note with it: read-out: GI.
Assay [16] has as its system Pseudomonas fluorescens. Briefly: Growth inhibition of Pseudomonas fluorescens at 5 ug/ml.
Assay [17] concerns Pseudomonas fluorescens. Description: Growth inhibition of Pseudomonas fluorescens at 90 ug/ml.
Assay [18] concerns Bacillus subtilis. Description: Growth inhibition of Bacillus subtilis at 90 ug/ml.
Assay [19] has as its system Bacillus subtilis. Briefly: Growth inhibition of Bacillus subtilis at 10 ug/ml.
Assay [20] has as its system Bacillus subtilis. Description: Growth inhibition of Bacillus subtilis at 20 ug/ml.

As to `COc1ccc2c(c1)CCc1sc(N)nc1-2`, 5 µg/mL produced 40% inhibition with Bacillus subtilis [1].

Take `COc1ccc2c(c1)CCc1cnoc1-2`: the inhibition (as a rule, the share of the control response that was lost under treatment) at 91 µg/mL in the assay with Bacillus subtilis [2] came to 100%; with Pseudomonas fluorescens [9] it was 0%. Further, the Activity with KB [3] came out at 67%; in the assay on KB [7] it was 0%; in the assay on KB [8], 100%. Moreover, the inhibition of growth at 25 µg/mL in the assay with KB [4] is 33%. The inhibition of growth at 12.5 µg/mL in the assay with KB [5] worked out at 0%. Besides, the inhibition of growth at 150 µg/mL with KB [6] worked out at 100%.

In turn, `COc1ccc2c(c1)CCc1c[nH]nc1-2` had an inhibition at 91 µg/mL with Bacillus subtilis [2] of 0%.

Molecule `OCCOc1ccc2c(c1)CCc1cn[nH]c1-2` yielded an inhibition at 91 µg/mL with Bacillus subtilis [2] of 0%.

In the assay with Bacillus subtilis [2], `CN(C)CCOc1ccc2c3c(ccc2c1)C(=O)CCC3` showed an inhibition at 91 µg/mL of 100%.

In turn, `CN(C)CCOc1ccc2c(c1)CCc1cn[nH]c1-2` had an inhibition at 91 µg/mL in the assay with Bacillus subtilis [2] of 0%.

Regarding `CCCCCCOc1ccc2c(c1)CCc1cn[nH]c1-2`, the inhibition at 45 µg/mL in the assay on Bacillus subtilis [10] came out at 100%; in the assay on Pseudomonas fluorescens [11], 0%.

Regarding `CCCCCCCCCCCCCCCCOc1ccc2c(c1)CCc1cn[nH]c1-2`, testing at 91 µg/mL with Bacillus subtilis [2] gave an inhibition of 0%.

For the molecule `CCCCCCOc1ccc2c(c1)CCc1cnn([C@@H]3O[C@H](COC(C)=O)[C@@H](OC(C)=O)[C@H](OC(C)=O)[C@H]3OC(C)=O)c1-2`, the inhibition at 91 µg/mL in the assay with Bacillus subtilis [2] amounted to 100%; in the assay on Pseudomonas fluorescens [9] it was 0%. Further, the inhibition at 50 µg/mL in the assay with Bacillus subtilis [12] stood at 100%; with Pseudomonas fluorescens [13], 0%.

In the case of `COc1ccc2c(c1)CCc1cnn([C@@H]3O[C@H](COC(C)=O)[C@@H](OC(C)=O)[C@H](OC(C)=O)[C@H]3OC(C)=O)c1-2`, the Activity in the assay with KB [14] worked out at 0%. Further, the inhibition at 91 µg/mL in the assay with Bacillus subtilis [2] and with Pseudomonas fluorescens [9] was 100% in each case. Besides, in the assay on KB [15], the inhibition of growth at 50 µg/mL came to 100%. This molecule came in with an inhibition at 5 µg/mL in the assay on Bacillus subtilis [1] of 100%.

For `CCCCCCOc1ccc2c(c1)CCc1cnn(CCN(CCCl)CCCl)c1-2`, in the assay on Bacillus subtilis [1], the inhibition at 5 µg/mL worked out at 100%.

Turning to `COc1ccc2c(c1)CCc1cnn(CCSCCCl)c1-2`, 45 µg/mL produced 100% inhibition in the assay on Bacillus subtilis [10].

With `CCCCCCOc1ccc2c(c1)CCc1cnoc1-2`, the inhibition at 45 µg/mL with Bacillus subtilis [10] and with Pseudomonas fluorescens [11] was 0% throughout. The molecule also displayed an inhibition at 91 µg/mL in the assay on Bacillus subtilis [2] of 100%.

`COc1ccc2c(c1)CC[C@]1(C)C(=O)NN=C21`: the inhibition at 91 µg/mL with Bacillus subtilis [2] came out at 0%.

On to `CCCCCCOc1ccc2c(c1)CC[C@]1(C)C(=O)NN=C21`, for which the inhibition at 91 µg/mL in the assay on Bacillus subtilis [2] and in the assay on Pseudomonas fluorescens [9] was 0% throughout.

For `CCCCCCOc1ccc2c(c1)CCc1sc(N)nc1-2`, the Activity in the assay on KB [3] stood at 0%. Further, the “inhibition (INH)” value in the assay on Bacillus subtilis [1] was determined as 100%. In the assay with KB [4], the inhibition of growth at 25 µg/mL amounted to 100%.

`COc1ccc2c(c1)CCc1sc(N)nc1-2.Cl` displayed an inhibition at 5 µg/mL in the assay with Pseudomonas fluorescens [16] of 0%. Also, the inhibition at 90 µg/mL turned out to be 25% in the assay on Pseudomonas fluorescens [17] and 100% in the assay with Bacillus subtilis [18]. In addition, the “inhibition (INH)” value with Bacillus subtilis [1] turned out to be 47%.

With `CCCCCCOc1ccc2c(c1)CCc1sc(N)nc1-2.Cl`, in the assay on Pseudomonas fluorescens [16], the inhibition at 5 µg/mL stood at 11%. The values for the inhibition at 90 µg/mL with Pseudomonas fluorescens [17] and in the assay with Bacillus subtilis [18] were 25% and 60%, respectively. Besides, in the assay with Bacillus subtilis [1], the “inhibition (INH)” value was determined as 12%.

In the case of `COc1ccc2c3c(ccc2c1)-c1[nH]ncc1CC3`, 90 µg/mL produced 48% inhibition in the assay on Pseudomonas fluorescens [17]. The same molecule had an inhibition at 91 µg/mL with Bacillus subtilis [2] of 7.8%.

Consider `CN(C)CCOc1ccc2c3c(ccc2c1)-c1[nH]ncc1CC3`, for which the inhibition at 91 µg/mL in the assay on Bacillus subtilis [2] amounted to 100%; with Pseudomonas fluorescens [9], 0%.

With `CCCCCCOc1ccc2c3c(ccc2c1)-c1[nH]ncc1CC3`, the inhibition at 91 µg/mL in the assay on Bacillus subtilis [2] is 100%.

In the assay on Pseudomonas fluorescens [17], `c1cnc2c(c1)-c1[nH]ncc1CC2` yielded an inhibition at 90 µg/mL of 0%. This molecule returned an inhibition at 10 µg/mL in the assay on Bacillus subtilis [19] of 100%.

On to `C[n+]1cccc2c1CCc1cn[nH]c1-2`, for which 91 µg/mL produced 50% inhibition with Bacillus subtilis [2].

Turning to `COc1ccc2c(c1)CCc1cnn(CCN(CCCl)CCCl)c1-2`, the inhibition at 20 µg/mL in the assay with Bacillus subtilis [20] worked out at 100%.

These data come from ChEMBL document CHEMBL3244137, “Synthesis and antimicrobial activity of azasteroid-type compounds and related systems. Effect of hydrophilic and lipophilic groups on activity” (1977).
